This passage reports IC50 results from patent US10039747B2, “Tetrahydrocyclopentapyrrole derivatives and a method for preparing the same” (Daewoong Pharmaceutical Co., Ltd., priority 2013, dated 2018).

Structures can show the parent of a compound that is named as a salt.

The target in this assay is T1, H+/K+-ATPase (Sus scrofa, UniProt P19156).
T1 construct: reaction buffer solution (60 mmol/l Tris-HCl buffer solution, pH 7.4) containing hog gastric vesicle; from tissue; host or cells: hog stomach (gastric vesicles, by centrifugation after Rabon et al. 1988)
T1 sequence (P19156 2-1034 limits assumed): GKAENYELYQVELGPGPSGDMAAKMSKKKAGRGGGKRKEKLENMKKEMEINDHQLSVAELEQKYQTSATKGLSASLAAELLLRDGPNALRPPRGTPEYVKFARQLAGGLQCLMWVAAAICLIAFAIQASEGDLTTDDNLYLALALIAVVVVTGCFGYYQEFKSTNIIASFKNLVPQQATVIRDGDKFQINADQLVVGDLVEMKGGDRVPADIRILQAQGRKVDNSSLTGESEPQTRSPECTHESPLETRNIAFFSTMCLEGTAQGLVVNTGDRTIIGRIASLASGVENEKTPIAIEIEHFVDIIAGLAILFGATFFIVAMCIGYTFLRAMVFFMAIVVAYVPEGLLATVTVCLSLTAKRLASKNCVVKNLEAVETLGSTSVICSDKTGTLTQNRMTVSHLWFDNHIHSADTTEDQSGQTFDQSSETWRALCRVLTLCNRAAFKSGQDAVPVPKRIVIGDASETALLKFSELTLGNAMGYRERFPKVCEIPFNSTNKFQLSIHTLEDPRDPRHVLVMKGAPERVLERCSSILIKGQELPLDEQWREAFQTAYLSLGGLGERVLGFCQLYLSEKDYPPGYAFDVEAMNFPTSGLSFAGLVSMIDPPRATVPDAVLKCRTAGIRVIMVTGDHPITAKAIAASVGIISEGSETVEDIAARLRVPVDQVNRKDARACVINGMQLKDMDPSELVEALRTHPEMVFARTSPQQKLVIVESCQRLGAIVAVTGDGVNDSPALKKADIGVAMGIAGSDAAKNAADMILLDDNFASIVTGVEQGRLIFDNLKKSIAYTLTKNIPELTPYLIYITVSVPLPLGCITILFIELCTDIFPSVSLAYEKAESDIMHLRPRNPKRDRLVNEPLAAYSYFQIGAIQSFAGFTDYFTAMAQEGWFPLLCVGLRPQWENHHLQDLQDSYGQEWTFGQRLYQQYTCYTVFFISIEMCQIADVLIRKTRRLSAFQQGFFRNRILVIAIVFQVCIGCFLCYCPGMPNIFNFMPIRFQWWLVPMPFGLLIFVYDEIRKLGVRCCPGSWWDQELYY
T1 sequence (P18434 whole entry partner): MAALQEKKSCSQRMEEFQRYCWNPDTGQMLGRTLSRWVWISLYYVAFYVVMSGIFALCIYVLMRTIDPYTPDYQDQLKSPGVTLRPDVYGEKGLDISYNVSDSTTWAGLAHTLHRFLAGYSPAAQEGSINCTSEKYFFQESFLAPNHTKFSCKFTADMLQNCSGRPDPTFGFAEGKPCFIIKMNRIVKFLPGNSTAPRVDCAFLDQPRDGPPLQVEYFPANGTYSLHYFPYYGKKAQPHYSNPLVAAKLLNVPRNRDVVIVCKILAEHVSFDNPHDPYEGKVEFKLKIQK
Briefly: Inhibition of proton pump (H+/K+-ATPase) activity in hog gastric vesicles. In kind it is biochemical. The conditions noted are these: K+ specific H+/K+-ATPase activity, pH 7.4, 37° C. for 40 minutes, malachite green. An outline of the steps:
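Hog gastric vesicles in 60 mmol/l Tris-HCl pH 7.4 with compound, started with ATP, 40 min at 37° C. Pi read by malachite green at 570 nm; K+-specific activity taken as difference between +K+ and −K+ activity. IC50 from % inhibition by 4-parameter logistic fit.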
Broadly, the IC50 is the point on the concentration scale where inhibition reaches its midpoint. Read a low IC50 as higher potency. Consider `CNC1CCc2c1cn(S(=O)(=O)c1cc(Cl)c(Cl)cc1Cl)c2-c1ccc(C)cc1F` (stereo not shown) [Example 82, 1-(2-fluoro-4-methylphenyl)-N-methyl-2-((2,4,5-trichlorophenyl)sulfonyl)-2,4,5,6-tetrahydrocyclopenta[c]pyrrol-4-amine], for which the midpoint of inhibition, the IC50, lay at 660 nM. For the compound `CNC1CCCc2c1cn(S(=O)(=O)c1cccc(C(F)(F)F)c1)c2-c1ccccc1F` (stereo not shown) [Example 124, 1-(2-fluorophenyl)-N-methyl-2-((3-(trifluoromethyl)phenyl)sulfonyl)-4,5,6,7-tetrahydro-2H-isoindole-4-amine], it took 4180 nM to reach half-maximal inhibition (IC50). Next, `CNC1CCc2c1cn(S(=O)(=O)c1ccccc1)c2-c1cc(Cl)ccc1Cl` (stereo not shown) [Example 45, 1-(2,5-dichlorophenyl)-N-methyl-2-(phenylsulfonyl)-2,4,5,6-tetrahydrocyclopenta[c]pyrrol-4-amine]: 550 nM; `CCNC1CCc2c1cn(S(=O)(=O)c1cccnc1)c2-c1ccccc1F` (stereo not shown) [Example 103, N-ethyl-1-(2-fluorophenyl)-2-(pyridin-3-ylsulfonyl)-2,4,5,6-tetrahydrocyclopenta[c]pyrrol-4-amine]: 1790 nM; `CNC1CCc2c1cn(S(=O)(=O)c1cc(Cl)cc(Cl)c1)c2-c1ccccc1F` (stereo not shown) [Example 77, 2-((3,5-dichlorophenyl)sulfonyl)-1-(2-fluorophenyl)-N-methyl-2,4,5,6-tetrahydrocyclopenta[c]pyrrol-4-amine]: 410 nM. Take `CNC1CCc2c1cn(S(=O)(=O)c1ccc(F)cc1F)c2-c1ccccc1F` (stereo not shown) [Example 65, 2-((2,4-difluorophenyl)sulfonyl)-1-(2-fluorophenyl)-N-methyl-2,4,5,6-tetrahydrocyclopenta[c]pyrrol-4-amine]: inhibition was half-maximal at 940 nM (IC50). Take `CNC1CCc2c1cn(S(=O)(=O)c1cccc(Cl)c1)c2-c1ccc(C(F)(F)F)nc1` (stereo not shown) [Example 39]: the IC50 was 2510 nM. This IC50 is about 2.7-fold higher than that of the compound before. `CNC1CCCc2c1cn(S(=O)(=O)c1cccnc1)c2-c1ccccc1Cl` (stereo not shown) [Example 133, 1-(2-chlorophenyl)-N-methyl-2-(pyridin-3-ylsulfonyl)-4,5,6,7-tetrahydro-2H-isoindole-4-amine]: the IC50 worked out at 2000 nM. Next, `CNC1CCCc2c1cn(S(=O)(=O)c1cccnc1)c2-c1ccc(-c2ccccc2)cc1` (stereo not shown) [Example 134, 1-([1,1′-biphenyl]-4-yl)-N-methyl-2-(pyridin-3-ylsulfonyl)-4,5,6,7-tetrahydro-2H-isoindole-4-amine]: 19700 nM. `CNC1CCc2c1cn(S(=O)(=O)c1cc(Cl)c(Cl)cc1Cl)c2-c1cc(Cl)ccc1Cl` (stereo not shown) [Example 83, 1-(2,5-dichlorophenyl)-N-methyl-2-((2,4,5-trichlorophenyl)sulfonyl)-2,4,5,6-tetrahydrocyclopenta[c]pyrrol-4-amine] had an IC50 of 980 nM. This IC50 is about 20-fold lower than that of the compound before. As for `CNC1NCc2c1cn(S(=O)(=O)c1cccc(Cl)c1)c2-c1ccccc1F` (stereo not shown) [Example 115, 5-((3-chlorophenyl)sulfonyl)-4-(2-fluorophenyl)-N-methyl-1,2,3,5-tetrahydropyrrolo[3,4-c]pyrrol-1-amine hydrochloride], the midpoint of inhibition, the IC50, lay at 40000 nM. As for `CNC1CCc2c1cn(Cc1cccc(Cl)c1)c2-c1ccccc1F` (stereo not shown) [Example 107, 2-(3-chlorobenzyl)-1-(2-fluorophenyl)-N-methyl-2,4,5,6-tetrahydrocyclopenta[c]pyrrol-4-amine], the IC50 was determined as 2860 nM.

Compound `CNC1CCCc2c1cn(S(=O)(=O)c1cccnc1)c2-c1ccccc1F` (stereo not shown) [Example 131, 1-(2-fluorophenyl)-N-methyl-2-(pyridin-3-ylsulfonyl)-4,5,6,7-tetrahydro-2H-isoindole-4-amine] had a 50% inhibitory concentration (IC50) of 1500 nM. To `CNC1CCc2c1cn(S(=O)(=O)c1cccc(C(=O)N3CCOCC3)c1)c2-c1ccccc1F` (stereo not shown) [Example 58, (3-((1-(2-fluorophenyl)-4-(methylamino)-5,6-dihydrocyclopenta[c]pyrrol-2(4H)-yl)sulfonyl)phenyl)(morpholino)methanone] belongs 5780 nM; to `CNC1CCc2c1cn(S(=O)(=O)c1ccc(Cl)c(Cl)c1)c2-c1ccccc1F` (stereo not shown) [Example 76, 2-((3,4-dichlorophenyl)sulfonyl)-1-(2-fluorophenyl)-N-methyl-2,4,5,6-tetrahydrocyclopenta[c]pyrrol-4-amine], 490 nM; to `CNC1CCc2c1cn(S(=O)(=O)c1cccc(Cl)c1)c2-c1ccc(C)cc1F` (stereo not shown) [Example 18, 2-((3-chlorophenyl)sulfonyl)-1-(2-fluoro-4-methylphenyl)-N-methyl-2,4,5,6-tetrahydrocyclopenta[c]pyrrol-4-amine], 430 nM. With `CNC1CCc2c1cn(S(=O)(=O)c1cccc(C)c1)c2-c1ccc(C)cc1F` (stereo not shown) [Example 52, 1-(2-fluoro-4-methylphenyl)-N-methyl-2-(m-tolylsulfonyl)-2,4,5,6-tetrahydrocyclopenta[c]pyrrol-4-amine], it took 350 nM to reach half-maximal inhibition (IC50). This IC50 and that of the compound before are within 1.5-fold of each other. Turning to `CNC1CCc2c1cn(S(=O)(=O)c1ccccc1OC)c2-c1ccccc1F` (stereo not shown) [Example 46, 1-(2-fluorophenyl)-2-((2-methoxyphenyl)sulfonyl)-N-methyl-2,4,5,6-tetrahydrocyclopenta[c]pyrrol-4-amine], the IC50 amounted to 3270 nM. As for `CNC1CCc2c1cn(S(=O)(=O)c1cccc(OC)c1)c2-c1ccc(C)cc1F` (stereo not shown) [Example 54, 1-(2-fluoro-4-methylphenyl)-2-((3-methoxyphenyl)sulfonyl)-N-methyl-2,4,5,6-tetrahydrocyclopenta[c]pyrrol-4-amine], the IC50 stood at 410 nM. Turning to `CNC1CCc2c1cn(S(=O)(=O)c1cccc(Cl)c1)c2-c1cc(Cl)ccc1Cl` (stereo not shown) [Example 23, 2-((3-chlorophenyl)sulfonyl)-1-(2,5-dichlorophenyl)-N-methyl-2,4,5,6-tetrahydrocyclopenta[c]pyrrol-4-amine], the 50% inhibitory concentration (IC50) is 410 nM. This lies in the sub-micromolar range.

Take `CNC1CCc2c1cn(S(=O)(=O)c1cncc(Cl)c1)c2-c1ccccc1F` (stereo not shown) [Example 95, 2-((5-chloropyridin-3-yl)sulfonyl)-1-(2-fluorophenyl)-N-methyl-2,4,5,6-tetrahydrocyclopenta[c]pyrrol-4-amine]: the midpoint of inhibition, the IC50, lay at 1720 nM. Against the preceding compound, the IC50 is about 4.2-fold higher. Next, `CNC1CCc2c1cn(S(=O)(=O)c1ccc(C(F)(F)F)cc1Cl)c2-c1ccccc1F` (stereo not shown) [Example 69, 2-((2-chloro-4-(trifluoromethyl)phenyl)sulfonyl)-1-(2-fluorophenyl)-N-methyl-2,4,5,6-tetrahydrocyclopenta[c]pyrrol-4-amine]: 1620 nM. In turn, `CNC1CCc2c1cn(S(=O)(=O)c1cc(Cl)ccc1Cl)c2-c1cc(Cl)ccc1Cl` (stereo not shown) [Example 73, 1-(2,5-dichlorophenyl)-2-((2,5-dichlorophenyl)sulfonyl)-N-methyl-2,4,5,6-tetrahydrocyclopenta[c]pyrrol-4-amine] came in with an IC50 of 670 nM.

Take `CNC1CCc2c1cn(S(=O)(=O)c1cccnc1)c2-c1cc(Cl)ccc1Cl` (stereo not shown) [Example 92, 1-(2,5-dichlorophenyl)-N-methyl-2-(pyridin-3-ylsulfonyl)-2,4,5,6-tetrahydrocyclopenta[c]pyrrol-4-amine]: inhibition was half-maximal at 350 nM (IC50).

Consider `CNC1CCc2c1cn(S(=O)(=O)c1cccc(Cl)c1)c2-c1ccc2occc2c1` (stereo not shown) [Example 29, 1-(benzofuran-5-yl)-2-((3-chlorophenyl)sulfonyl)-N-methyl-2,4,5,6-tetrahydrocyclopenta[c]pyrrol-4-amine], for which the IC50 came out at 1280 nM.

Regarding `CNC1CCCc2c1cn(S(=O)(=O)c1cccc(OC(F)F)c1)c2-c1ccccc1F` (stereo not shown) [Example 123, 2-((3-(difluoromethoxy)phenyl)sulfonyl)-1-(2-fluorophenyl)-N-methyl-4,5,6,7-tetrahydro-2H-isoindole-4-amine], the IC50 was found to be 2000 nM. For `CNC1CCc2c1cn(S(=O)(=O)c1cccc(Cl)c1)c2-c1ccccc1N1CCOCC1` (stereo not shown) [Example 7], 40000 nM corresponded to half-maximal inhibition (IC50). For the compound `CNC1CCc2c1cn(S(=O)(=O)c1ccc(Cl)c(Cl)c1Cl)c2-c1ccccc1F` (stereo not shown) [Example 80, 1-(2-fluorophenyl)-N-methyl-2-((2,3,4-trichlorophenyl)sulfonyl)-2,4,5,6-tetrahydrocyclopenta[c]pyrrol-4-amine], it took 620 nM to reach half-maximal inhibition (IC50). To `CNC1CCc2c1cn(S(=O)(=O)c1ccc(F)cc1)c2-c1cc(Cl)ccc1Cl` (stereo not shown) [Example 61, 1-(2,5-dichlorophenyl)-2-((4-fluorophenyl)sulfonyl)-N-methyl-2,4,5,6-tetrahydrocyclopenta[c]pyrrol-4-amine] belongs 770 nM; to `CNC1CCc2c1cn(S(=O)(=O)c1cccnc1)c2-c1ccccc1Cl` (stereo not shown) [Example 89, 1-(2-chlorophenyl)-N-methyl-2-(pyridin-3-ylsulfonyl)-2,4,5,6-tetrahydrocyclopenta[c]pyrrol-4-amine], 1190 nM; to `CNC1CCc2c1cn(S(=O)(=O)c1cc(Cl)ccc1Cl)c2-c1ccccc1F` (stereo not shown) [Example 70, 2-((2,5-dichlorophenyl)sulfonyl)-1-(2-fluorophenyl)-N-methyl-2,4,5,6-tetrahydrocyclopenta[c]pyrrol-4-amine], 430 nM. Take `CN(C)C1CCCc2c1cn(S(=O)(=O)c1cccc(Cl)c1)c2-c1ccccc1F` (stereo not shown) [Example 138, 2-((3-chlorophenyl)sulfonyl)-1-(2-fluorophenyl)-N,N-dimethyl-4,5,6,7-tetrahydro-2H-isoindole-4-amine]: the midpoint of inhibition, the IC50, lay at 7100 nM. Compared with the last compound, the IC50 is about 17-fold higher. `CNC1CCc2c1cn(S(=O)(=O)c1cccc(Cl)c1)c2-c1cccc(C(F)(F)F)c1` (stereo not shown) [Example 10, 2-((3-chlorophenyl)sulfonyl)-N-methyl-1-(3-(trifluoromethyl)phenyl)-2,4,5,6-tetrahydrocyclopenta[c]pyrrol-4-amine] registered an IC50 of 970 nM. Compound `CNC1CCc2c1cn(S(=O)(=O)c1cccc(Cl)c1)c2-c1ccccc1` (stereo not shown) [Example 3, 2-((3-chlorophenyl)sulfonyl)-N-methyl-1-phenyl-2,4,5,6-tetrahydrocyclopenta[c]pyrrol-4-amine] gave an IC50 of 450 nM. This IC50 is about 2.2-fold lower than that of the compound before.
